Laboratory results taken from US11420910B2, “Methods for low temperature fluorine-18 radiolabeling of biomolecules” (KATHOLIEKE UNIVERSITEIT LEUVEN, priority 2014, dated 2022).
Values joined by “and” are separate entries in the source; they are usually repeats but may differ in a detail not shown here. Identical values can stand only once. “Also recorded” adds a separate entry of the source.

Tests used:
[1] = Stability tests of Al18F-complexes in PBS (0.1 M, pH 7) at 37° C., Example 26; format: physicochemical; settings: PBS 0.1 M pH 7, 37° C.
Experimental: (§1) 400 μl of each purified [Al^18F]-complex solution was added to 1 mL of PBS and/or 1 mL of rat serum. […] Finally the supernatant was analysed using iTLC-SG.

[2] = Biodistribution of Al18F-complexes and {Al18F}2+ in healthy male NMRI mice; format: in vivo; settings: for uptake in blood / uptake in bone / uptake in intestines / uptake in kidneys / uptake in liver / uptake in urinary bladder: NMRI mice, tail vein
Experimental: (§2) Quantification of radioactivity during biodistribution studies was performed using an automated gamma counter equipped with a 3-inch NaI(TI) well crystal coupled to a multichannel analyzer, mounted in a sample changer (Perkin Elmer 1480 Wizard 3q). Counts were corrected for background radiation, physical decay and counter dead time.
(§3) The biodistribution of the [Al^18F]-L3 complex and {Al^18F}^2+ was determined in healthy male Naval Medical Research Institute (NMRI) mice (body weight: 30-40 g) at 10 and 60 min post injection (p.i.) (n=4/time point). Mice were injected with the [Al^18F]-L3 complex (about 1 MBq) or {Al^18F}^2+ (5.55 MBq) via a tail vein under anesthesia (2.5% isoflurane in O2 at 1 L/min flow rate) and sacrificed by decapitation at above specified time points. Blood and major organs were collected in tared tubes and weighed. The radioactivity in blood, organs and other body parts was counted using an automated γ-counter. For the calculation of total radioactivity in blood, bone and muscle, masses were assumed to be, respectively, 7, 12 and 40% of the total body mass.^20, 21
as §2, with “Nai(TI)” for “NaI(TI)”
as §3, with “[Al^18F]-L26” for “[Al^18F]-L3”, “(n=3/time point for 10 min p.i. and n=4/time point for 60 min p.i.).” for “(n=4/time point).”, “mass.^20,21” for “mass.^20, 21”

[3] = Stability tests of Al18F-complexes in rat serum at 37° C., Example 26; format: in vitro ADME
Experimental: as §1

[4] = Stability tests in PBS (0.1 M, pH 7.4) at 37° C., Examples 29 and 33; format: physicochemical; settings: for % intact tracer: PBS 0.1M pH 7.4, 37° C.; for stability in PBS (in words): 37° C.
Experimental: (§5) These mixtures were incubated at 37° C. and analysed by iTLC-SG at 10, 30, 60, 120, 180 and 240 min after the start of the incubation (N=3). Serum samples were denatured by addition of 50 μl of the serum solution to 50 μl of acetonitrile. The mixture was stirred and centrifuged (1300 g, 3 min). Finally the supernatant was analysed using iTLC-SG.

PSMA = biological target: T1, PSMA (Mus musculus, UniProt O35409); test: Biodistribution of PSMA tracers in mice with or without coadministration of 2-PMPA; format: in vivo
T1 construct: organs with reported high expression of PSMA such as kidney; from tissue; host or cells: living mice; kidney, spleen and other organs counted ex vivo
Experimental: The compounds ^68Ga-HBED-CC-PSMA, Al^18F-L6-PSMA, Al^18F-L27-PSMA or Al^18F-NODA-MPAA-PSMA were injected via the tail vain (1-2 MBq) with or without coadministration of 2 mg/kg 2-PMPA. At 10 min or 60 min p.i. (N=4), the animals were sacrificed. Blood and major organs were collected in tarred tubes and weighed. The radioactivity was measured using an automated γ-counter and calculated as % ID and % ID/g.
as §2

[5] = Stability tests in rat serum at 37° C., Examples 29 and 33
Experimental: as §5

[6] = Stability tests of Al18F-complexes in different buffers ranging from pH 2 to 8 (room temperature, iTLC-SG); format: physicochemical; settings: buffers pH 2 to 8, room temperature, 30 and 60 min
Experimental: (§4) 200 μl of the purified Al^18F-L3 solution was added to 1 mL of sodium phosphate buffer (0.1 M, pH 2), sodium phosphate buffer (0.1 M, pH 3), sodium acetate buffer (0.1 M, pH 4), sodium acetate buffer (0.1 M, pH 5), sodium acetate buffer (0.1 M, pH 6), PBS buffer (0.1 M, pH 7) or Tris-HCl buffer (0.1 M, pH 8). These mixtures were incubated at room temperature and analyzed by iTLC-SG at 30 and 60 min after the start of the incubation.
as §4, with “Al^18F-L26” for “Al^18F-L3”

T1 sequence (O35409 whole entry): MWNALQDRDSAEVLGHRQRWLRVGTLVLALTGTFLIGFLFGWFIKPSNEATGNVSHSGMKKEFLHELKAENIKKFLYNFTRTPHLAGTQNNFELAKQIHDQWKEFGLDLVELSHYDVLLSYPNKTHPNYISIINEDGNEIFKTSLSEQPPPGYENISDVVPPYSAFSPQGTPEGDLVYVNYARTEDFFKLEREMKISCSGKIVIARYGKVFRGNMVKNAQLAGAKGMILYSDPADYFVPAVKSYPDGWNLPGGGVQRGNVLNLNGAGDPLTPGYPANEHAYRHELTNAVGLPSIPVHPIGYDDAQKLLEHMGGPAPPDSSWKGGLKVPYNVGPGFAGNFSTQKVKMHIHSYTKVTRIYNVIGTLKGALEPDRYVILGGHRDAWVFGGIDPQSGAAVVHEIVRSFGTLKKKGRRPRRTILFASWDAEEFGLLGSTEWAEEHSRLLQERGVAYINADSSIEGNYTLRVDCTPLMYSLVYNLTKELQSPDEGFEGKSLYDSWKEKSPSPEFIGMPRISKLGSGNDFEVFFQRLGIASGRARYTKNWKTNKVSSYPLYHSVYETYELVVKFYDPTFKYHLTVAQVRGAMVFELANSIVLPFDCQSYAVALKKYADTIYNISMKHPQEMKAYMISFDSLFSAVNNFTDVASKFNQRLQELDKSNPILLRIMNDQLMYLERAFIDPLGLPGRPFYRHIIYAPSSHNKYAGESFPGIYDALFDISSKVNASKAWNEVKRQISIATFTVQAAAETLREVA

Structure (SMILES): O=C1CN(Cc2ccccc2)CCN(Cc2ccccn2)CC(=O)[O][Al]([18F])[O]1 [Al^18F-L7]
- stability in PBS (in words) [1]: do not seem to be stable

Structure (SMILES): [18F][Al+2] [{Al^18F}^2+, reference compound]
- uptake in blood ([2]; 10 min p.i.): 5.0 % ID
- uptake in bone ([2]; 10 min p.i.): 60 % ID
- uptake in intestines ([2]; 10 min p.i.): 4.22 % ID
- uptake in kidneys ([2]; 10 min p.i.): 2.2 % ID
- uptake in liver ([2]; 10 min p.i.): 3.71 % ID
- uptake in urinary bladder ([2]; 10 min p.i.): 20.7 % ID
- uptake in blood ([2]; 60 min p.i.): 0.6 % ID
- uptake in bone ([2]; 60 min p.i.): 83 % ID and 83.3 % ID
- uptake in intestines ([2]; 60 min p.i.): 1.91 % ID
- uptake in kidneys ([2]; 60 min p.i.): 0.5 % ID
- uptake in liver ([2]; 60 min p.i.): 0.55 % ID
- uptake in urinary bladder ([2]; 60 min p.i.): 30.6 % ID

Structure (SMILES): O=C1CN(Cc2ccccc2)CCN2CC(=O)[O][Al-]([18F])([O]1)[O]c1ccc(F)cc1C2 (stereo not shown) [Al^18F-L4]
- stability in PBS (in words) [1]: comparable to that of Al^18F-NODA-benzyl up to 60 minutes
- RCP ([1]; 120 min): 85%
- RCP ([1]; 240 min): 74%
- stability in rat serum (in words) [3]: good stability in rat serum
- RCP ([3]; 240 min): 41%

Structure (SMILES): O=C1CN2CC(=O)[O][Al-]([18F])([O]1)[O]C(=O)CN(Cc1ccccc1)C1CCCC12 (stereo not shown) [Al^18F-L31]
- % intact tracer ([4]; 1 h): 0%
- stability in PBS (in words) [4]: unstable

Structure (SMILES): O=C([O-])CN(CCN(CC(=O)[O-])Cc1cc(CCC(=O)NCCCCCC(=O)NCCCC[C@H](NC(=O)N[C@@H](CCC(=O)O)C(=O)O)C(=O)O)ccc1[O-])Cc1cc(CCC(=O)O)ccc1[O-].[68Ga+3].[OH3+] [^68Ga-HBED-CC-PSMA]
- affinity for the PSMA receptor indicated by spleen and kidney uptake (in words) (PSMA): high affinity for the PSMA receptor
- in vivo stability judged from bone uptake (in words) (PSMA): high in vivo stability
- kidney and spleen retention when 2-PMPA was coinjected (in words) (PSMA; 60 min p.i., 2 mg/kg 2-PMPA): nearly completely blocked
- retention in kidney (PSMA; 60 min p.i., without 2-PMPA): 269.90±47.23 % ID/g
- retention in spleen (PSMA; 60 min p.i., without 2-PMPA): 2.72±0.42 % ID/g
- bone uptake (PSMA; tail vein, time point not stated): 0.39±0.09 % ID/g

Structure (SMILES): O=C1CN2CCN(Cc3ccccc3)CC(=O)[O][Al-]([18F])([O]1)[O]C(=O)C2 [Al^18F-L1]
- stability in PBS (in words) [1]: do not seem to be stable
- stability in rat serum (in words) [3]: unstable in serum
- RCP ([3]; 120 min): 0%

Structure (SMILES): O=C1CN(Cc2ccccc2)CCN2CC(=O)[O][Al-]([18F])([O]1)[O]c1ccc([N+](=O)[O-])cc1C2 (stereo not shown) [Al^18F-L5]
- stability in PBS (in words) [1]: comparable to that of Al^18F-NODA-benzyl up to 60 minutes
- RCP ([1]; 120 min): 78%
- RCP ([1]; 240 min): 65%
- stability in rat serum (in words) [3]: good stability in rat serum
- RCP ([3]; 240 min): 39%

Structure (SMILES): O=C1CN2CC(=O)[O][Al-]([18F])([O]1)[O]C(=O)CN(Cc1ccccc1)c1ccccc12 [Al^18F-L32]
- % intact tracer ([4]; 1 h): 0%
- stability in PBS (in words) [4]: unstable

Structure (SMILES): O=C1CN2CC(=O)[O][Al-]([18F])([O]1)[O]C(=O)CN(Cc1ccccc1)C1CC=CCC12 (stereo not shown) [Al^18F-L30]
- stability in PBS (in words) [4]: only moderate stability

Structure (SMILES): O=C1CN(Cc2ccccc2O)CCN2CC(=O)[O][Al-]([18F])([O]1)[O]c1ccccc1C2 (stereo not shown) [Al^18F-L2]
- stability in PBS (in words) [1]: do not seem to be stable
- RCP ([1]; 120 min): 31%
- stability in rat serum (in words) [3]: unstable in serum
- RCP ([3]; 120 min): 0%

Structure (SMILES): O=C1CN2CCN(CCN(Cc3ccccc3)CC2)CC(=O)[O][Al]([18F])[O]1 [Al^18F-NODA-benzyl, reference compound]
- RCP ([1]; 60 min): 99%
- RCP ([1]; 120 min): 98%
- RCP ([1]; 240 min): 88%
- RCP ([3]; 60 min): 99%
- RCP ([3]; 120 min): 97%
- RCP ([3]; 240 min): 87%

Structure (SMILES): O=C1CN2CC(=O)[O][Al-]([18F])([O]1)[O]C(=O)CN(Cc1ccccc1)[C@@H]1CCCC[C@H]12 (racemic) [Al^18F-L26]
- stability in rat serum (in words) [5]: excellent stability; also recorded: stability comparable to that of the previously reported Al^18F-NODA
- % intact tracer ([5]; 10 min): 97.2%
- % intact tracer ([5]; 30 min): 99.0%
- % intact tracer ([5]; 1 h): 98±2.3% and 97.3%
- % intact tracer ([5]; 2 h): 86.7%
- % intact tracer ([5]; 3 h): 91.6%
- % intact tracer ([5]; 4 h): 91±2.4% and 91.2%
- uptake in blood ([2]; 10 min p.i.): 2.0 % ID and 1.9 % ID
- uptake in bone ([2]; 10 min p.i.): 1.6 % ID
- uptake in intestines ([2]; 10 min p.i.): 19.6 % ID
- uptake in kidneys ([2]; 10 min p.i.): 4.6 % ID
- uptake in liver ([2]; 10 min p.i.): 49.5 % ID
- uptake in urinary bladder ([2]; 10 min p.i.): 14.3 % ID
- uptake in blood ([2]; 60 min p.i.): 0.1 % ID
- uptake in bone ([2]; 60 min p.i.): 1.9 % ID
- uptake in intestines ([2]; 60 min p.i.): 62.7 % ID
- uptake in kidneys ([2]; 60 min p.i.): 0.2 % ID
- uptake in liver ([2]; 60 min p.i.): 8.8 % ID
- uptake in urinary bladder ([2]; 60 min p.i.): 21.5 % ID
- route of clearance (in words) ([2]; mice, 60 min p.i.): hepatobiliary clearance
- in vivo stability judged from bone uptake (in words) ([2]; mice, biodistribution): high stability
- % intact tracer ([4]; 10 min): 99.1%
- % intact tracer ([4]; 30 min): 98.0%
- % intact tracer ([4]; 1 h): 97.8%
- % intact tracer ([4]; 2 h): 91.0%
- % intact tracer ([4]; 3 h): 95.3%
- % intact tracer ([4]; 4 h): 87.3%
- stability in PBS (in words) [4]: excellent stability; also recorded: stability comparable to that of the previously reported Al^18F-NODA
- stability at different pH (in words) [6]: stable for at least 60 min in the pH range from 2 to 8
